Consider 26 compounds from patent publication US20240246908A1 (ORION CORPORATION, priority 2021, published 2024).

The experiment deals with YAP-TEAD. The experiment is described as follows: TEAD inhibition, Hippo Pathway TEAD Reporter MCF-7 luciferase assay. Particulars: Homo sapiens, MCF7, 24 h, Hippo Pathway TEAD Reporter MCF-7 cells, luciferase activity after 24 h; read-out: IC50 of the test compounds on YAP-TEAD inhibition (Group). It is filed as cell-based. The procedure, abridged: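 IC50 derived from ONE-Glo luciferase luminescence after 24 h compound exposure (11 concentrations in quadruplicate, 0.1% DMSO control). Reporter: MCF-7 line expressing firefly luciferase under TEAD elements, constitutively activated by nuclear YAP1.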

Each structure is given as a SMILES string.

As to `COCC(=O)N1C(=O)CC[C@H]1C(=O)Nc1cc(Oc2ccc(C(F)(F)F)cc2)ccc1OC` [Compound 333, (S)—N-(2-Methoxy-5-(4-(trifluoromethyl)phenoxy)phenyl)-1-(2-methoxyacetyl)-5-oxopyrrolidine-2-carboxamide], the IC50 was in the range of 0.301 to 2 µM.

In the case of `CN1C(=O)NCC1C(=O)Nc1cc(Oc2ccc(C(F)F)cc2)cc2c1OCC2` (centres unmarked) [Compound 213, N-(5-(4-(Difluoromethyl)phenoxy)-2,3-dihydrobenzofuran-7-yl)-3-methyl-2-oxoimidazolidine-4-carboxamide], the IC50 is under 0.05 µM.

As for `COc1cc(F)c(Oc2ccc(C(F)(F)F)cc2)cc1NC(=O)C1CNC(=O)N1C` (centres unmarked) [Compound 382, N-(4-Fluoro-2-methoxy-5-(4-(trifluoromethyl)phenoxy)phenyl)-3-methyl-2-oxoimidazolidine-4-carboxamide], the half-maximal inhibitory concentration (IC50) is under 0.05 µM.

Regarding `COc1ccc(COc2cccc(F)c2)cc1NC(=O)C1CCC(=O)N1C(C)=O` (centres unmarked) [Compound 3, 1-Acetyl-N-(5-((3-fluorophenoxy)methyl)-2-methoxyphenyl)-5-oxopyrrolidine-2-carboxamide], the concentration for half-maximal inhibition (IC50) lay in the range of 0.301 to 2 µM.

`COc1ccc(Oc2ccc(C(F)(F)F)cc2)cc1NC(=O)[C@]1(C)CCC(=O)N1C` [Compound 135, (S)—N-(2-Methoxy-5-(4-(trifluoromethyl)phenoxy)phenyl)-1,2-dimethyl-5-oxo-pyrrolidine-2-carboxamide]: the IC50 fell in the range of 0.05 to 0.3 µM.

On to `COc1ccc(Oc2ccc(C(F)F)cn2)cc1NC(=O)C1CCC(=O)N1C` (centres unmarked) [Compound 211, N-(5-((5-(Difluoromethyl)pyridin-2-yl)oxy)-2-methoxyphenyl)-1-methyl-5-oxopyrrolidine-2-carboxamide], for which the IC50 was 0.05 to 0.3 µM.

Regarding `CNC(=O)CN1C(=O)CCC1C(=O)Nc1cc(Oc2ccc(C(F)(F)F)cc2)cc2c1OCC2` (centres unmarked) [Compound 188, 1-(2-(Methylamino)-2-oxoethyl)-5-oxo-N-(5-(4-(trifluoromethyl)phenoxy)-2,3-dihydrobenzofuran-7-yl)pyrrolidine-2-carboxamide], the IC50 was 0.301 to 2 µM.

On to `CN1C(=O)CCC1C(=O)Nc1cc(Oc2cccc(C(F)(F)F)c2)cc2c1NC(=O)CO2` (centres unmarked) [Compound 106, 1-Methyl-5-oxo-N-(3-oxo-7-(3-(trifluoromethyl)phenoxy)-3,4-dihydro-2H-benzo[b][1,4]oxazin-5-yl)pyrrolidine-2-carboxamide], for which the half-inhibitory concentration (IC50) was 0.301 to 2 µM.

As for `COc1ccc(OC2CCCCC2)cc1NC(=O)C1CCC(=O)N1C` (centres unmarked) [Compound 286, N-(5-(Cyclohexyloxy)-2-methoxyphenyl)-1-methyl-5-oxopyrrolidine-2-carboxamide], the IC50 lay in the range of 0.05 to 0.3 µM.

`CN1C(=O)CCC1C(=O)Nc1cc(Oc2ccc(F)cc2)cc(C(F)(F)F)c1` (centres unmarked) [Compound 303, N-(3-(4-Fluorophenoxy)-5-(trifluoromethyl)phenyl)-1-methyl-5-oxopyrrolidine-2-carboxamide]: the 50% inhibitory concentration (IC50) lay within 0.301 to 2 µM.

As for `COc1cc(NC(=O)C2CCC(=O)N2)cc(Oc2cccc(C(F)(F)F)c2)c1` (centres unmarked) [Compound 261, N-(3-Methoxy-5-(3-(trifluoromethyl)phenoxy)phenyl)-5-oxopyrrolidine-2-carboxamide], the half-inhibitory concentration (IC50) is 0.05 to 0.3 µM.

With `O=C(Nc1cc(Oc2ccc(C(F)(F)F)cn2)cc2c1OCC2)[C@H]1CCC(=O)N1C1CC1` [Compound 166, (R)-1-Cyclopropyl-5-oxo-N-(5-((5-(trifluoromethyl)pyridin-2-yl)oxy)-2,3-dihydrobenzofuran-7-yl)pyrrolidine-2-carboxamide], the IC50 was under 0.05 µM.

For the compound `O=C1CCC(C(=O)Nc2cc(COc3cccc(F)c3)cc3c2OCCO3)N1` (centres unmarked) [Compound 57, N-(7-((3-Fluorophenoxy)methyl)-2,3-dihydrobenzo[b][1,4]dioxin-5-yl)-5-oxopyrrolidine-2-carboxamide], the IC50 was in the range of 0.05 to 0.3 µM.

Take `CN1C(=O)CC[C@@H]1C(=O)Nc1cc(Oc2ccc(C(F)(F)F)cn2)cc2c1OCCC2` [Compound 175, (R)-1-Methyl-5-oxo-N-(6-((5-(trifluoromethyl)pyridin-2-yl)oxy)chroman-8-yl)pyrrolidine-2-carboxamide]: the IC50 was under 0.05 µM.

With `COc1ccc(Oc2cnc(C(F)(F)F)c(F)c2)cc1NC(=O)C1CCC(=O)N1C` (centres unmarked) [Compound 399], the IC50 was under 0.05 µM.

`CN1C[C@@H](C(=O)Nc2cc(Oc3ccc(C(F)(F)F)cn3)cc3c2OCO3)N(C)C1=O` [Compound 360, (S)-1,3-Dimethyl-2-oxo-N-(6-((5-(trifluoromethyl)pyridin-2-yl)oxy)benzo[d]-[1,3]dioxol-4-yl)imidazolidine-4-carboxamide]: the IC50 is 0.05 to 0.3 µM.

Turning to `CN1C(=O)NC[C@H]1C(=O)Nc1cc(Oc2ccc(C(F)(F)F)cn2)cc2c1OCO2` [Compound 180, (S)-3-Methyl-2-oxo-N-(6-((5-(trifluoromethyl)pyridin-2-yl)oxy)benzo-[d][1,3]dioxol-4-yl)imidazolidine-4-carboxamide], the IC50 was under 0.05 µM.

Consider `COCCN1C(=O)CCC1C(=O)Nc1cc(Oc2ccc(C(F)(F)F)cc2)ccc1OC` (centres unmarked) [Compound 318, N-(2-Methoxy-5-(4-(trifluoromethyl)phenoxy)phenyl)-1-(2-methoxyethyl)-5-oxopyrrolidine-2-carboxamide], for which the half-inhibitory concentration (IC50) was under 0.05 µM.

Consider `COc1ccc(OCc2cccc(C(F)(F)F)c2)cc1NC(=O)C1CCC(=O)N1C(C)=O` (centres unmarked) [Compound 51, 1-Acetyl-N-(2-methoxy-5-((3-(trifluoromethyl)benzyl)oxy)phenyl)-5-oxo-pyrrolidine-2-carboxamide], for which the half-inhibitory concentration (IC50) is 0.301 to 2 µM.

As to `CN1C(=O)CCC1C(=O)Nc1cc(Oc2ccc(OC(F)(F)F)cc2)ccc1Cl` (centres unmarked) [Compound 329, N-(2-Chloro-5-(4-(trifluoromethoxy)phenoxy)phenyl)-1-methyl-5-oxo-pyrrolidine-2-carboxamide], the half-inhibitory concentration (IC50) was 0.301 to 2 µM.

As to `COc1ccc(COc2cccc(F)c2)cc1NC(=O)C1COC(=O)N1C` (centres unmarked) [Compound 90, N-(5-((3-Fluorophenoxy)methyl)-2-methoxyphenyl)-3-methyl-2-oxo-oxazolidine-4-carboxamide], the IC50 was 0.05 to 0.3 µM.

In the case of `COc1ccc(Oc2ccc(CF)cc2)cc1NC(=O)[C@@H]1CNC(=O)N1C` [Compound 353, (S)—N-(5-(4-(Fluoromethyl)phenoxy)-2-methoxyphenyl)-3-methyl-2-oxoimidazolidine-4-carboxamide], the IC50 fell in the range of 0.301 to 2 µM.

With `COc1ccc(O[C@H]2CCC[C@H](C(F)(F)F)C2)cc1NC(=O)C1CCC(=O)N1` (stereo partly drawn) [Compound 267, N-(2-Methoxy-5-(((1S,3S)-3-(trifluoromethyl)cyclohexyl)oxy)phenyl)-5-oxo-pyrrolidine-2-carboxamide], the half-maximal inhibitory concentration (IC50) was in the range of 0.05 to 0.3 µM.

Take `COc1ccc(Oc2ccc(C(F)(F)F)c(F)n2)cc1NC(=O)C1CCC(=O)N1C` (centres unmarked) [Compound 400, N-(5-((6-Fluoro-5-(trifluoromethyl)pyridin-2-yl)oxy)-2-methoxyphenyl)-1-methyl-5-oxopyrrolidine-2-carboxamide]: the IC50 is under 0.05 µM.

Consider `COc1ccc(Oc2ccc(C(F)(F)F)cc2)cc1NC(=O)C1CCC(=O)N1C(C)=O` (centres unmarked) [Compound 47, 1-Acetyl-N-(2-methoxy-5-(4-(trifluoromethyl)phenoxy)phenyl)-5-oxo-pyrrolidine-2-carboxamide], for which the concentration for half-maximal inhibition (IC50) is under 0.05 µM.

In the case of `CN1C(=O)CCC1C(=O)Nc1cc(Oc2ccc(F)c(F)c2)ccc1-c1nnco1` (centres unmarked) [Compound 224, N-(5-(3,4-Difluorophenoxy)-2-(1,3,4-oxadiazol-2-yl)phenyl)-1-methyl-5-oxopyrrolidine-2-carboxamide], the IC50 is 0.301 to 2 µM.

A word on the IC50: it is the concentration at which inhibition is half-maximal.
